Assay results from publication PMC12022153, “Sustainable approach for synthesis of new coumarin-linked Schiff bases in DABCO-based ionic liquid and their identification as aldose reductase inhibitors” (Scientific Reports, 2025).
Where two headings read alike, the source gives them in different places.

Key:
[1] = biological target: T1, aldose reductase (ALR2) (Bos taurus, UniProt P16116); test: Enzyme inhibition assay for ALR2 (aldose reductase), NADPH absorbance at 340 nm; assay type: biochemical, bovine; settings: for selectivity of inhibition, ALR2 versus ALR1: comparison of inhibitory activity against both enzymes; for IC50: read-out: IC50 ± SEM ALR2 Inhibition; for inhibition at 100 µM: less than 50% so no IC50
T1 construct: ALR2 was extracted from the eyes while ALR1 was obtained from the kidneys; from tissue; host or cells: bovine eyes
Description: (§1) The ALR2 activity was estimated through measuring decrease in absorbance of NADPH in the assay at 340 nm on a spectrophotometer (FLUOstar Omega BMG LABTECH, Germany). The enzyme inhibition assay was carried out via following methods of ALR2 inhibition of our recent study. During the assay, total assay volume was kept 100 consisting of 20 µL of 100 mM sodium phosphate buffer at pH 6.2, 30 µL of the enzyme ([…]; protein concentration 12 µg mL^−1), 10 µL of test compound, and 20 µL of 1 mM substrate DL-glyceraldehyde. First, the reaction mixture was incubated without co-factor (NADPH) then reaction was initiated by addition of 20 µL of NADPH solution of 0.1 mM and monitored for five minutes. The change of absorbance was noted as pre-read and after-read, the percent inhibition was calculated for the tested compounds and standard inhibitor. For ALR1 (aldehyde reductase), sodium-D-glucuronate was employed as a substrate and valproic acid as a standard inhibitor. […] Otherwise, identical protocols were adopted for the ALR1 and ALR2 assays. First, tests compounds were solubilized in dimethyl sulfoxide (DMSO) (100%) and dilutions were prepared with deionized water to keep the concentration of DMSO at 0.1% during the assay. Initially, test compounds were tested at 100 µM. […] The logarithms of the inhibitor concentration were plotted versus the remaining activity of the enzyme, and IC50 values were calculated using non-linear regression analysis in GraphPad Prism Version 8.
(§2) Based on these reports, a library of coumarin-linked Schiff base analogues were designed. […] Compounds were also checked for selectivity via testing their inhibitory potency against ALR1 enzyme. Both aldose reductase enzymes (ALR2 and ALR1) were isolated from bovine; ALR2 was extracted from the eyes while ALR1 was obtained from the kidneys.

[2] = biological target: T2, aldehyde reductase (ALR1) (Bos taurus, UniProt Q3ZCJ2); test: Enzyme inhibition assay for ALR1 (aldehyde reductase), NADPH absorbance at 340 nm; assay type: biochemical, bovine; settings: for inhibition at 100 µM: less than 50% so no IC50; for IC50: substrate sodium-D-glucuronate, NADPH, standard valproic acid, value ± SEM
T2 construct: ALR2 was extracted from the eyes while ALR1 was obtained from the kidneys; from tissue; host or cells: bovine kidneys
Description: as §1, §2

[3] = tested on: aldose reductase (ALR2); settings: cited from earlier work
[4] = test compounds tested at 100 µM, read-out: % Inhibition ALR1
[5] = test compounds tested at 100 µM, read-out: % Inhibition ALR2

T2 sequence (Q3ZCJ2 whole entry): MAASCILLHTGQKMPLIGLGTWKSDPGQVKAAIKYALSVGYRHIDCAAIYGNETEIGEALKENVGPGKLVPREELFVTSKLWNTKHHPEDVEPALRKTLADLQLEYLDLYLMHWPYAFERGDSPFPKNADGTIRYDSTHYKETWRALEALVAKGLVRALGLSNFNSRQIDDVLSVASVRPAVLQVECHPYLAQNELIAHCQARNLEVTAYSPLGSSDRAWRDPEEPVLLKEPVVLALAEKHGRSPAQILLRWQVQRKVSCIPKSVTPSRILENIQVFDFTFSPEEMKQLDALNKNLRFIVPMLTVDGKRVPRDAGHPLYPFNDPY

selectivity of inhibition, ALR2 versus ALR1 [1]	IC50 [1]	inhibition at 100 µM [2, 4]	IC50 [2]	SMILES	other results
selective inhibition against ALR2 enzyme	11.2 ± 0.029 µM	45.1%	–	O=c1oc2ccccc2cc1COc1ccccc1C=NNc1ccccc1 [Compound 5, 3-((2′-((2-Phenylhydrazineylidene)methyl)phenoxy)methyl)-2H-chromen-2-one]	–
selective inhibition against ALR2 enzyme	2.2 ± 0.024 µM	45.2%	–	O=c1oc2ccccc2cc1COc1ccccc1C=NNc1ccc(F)cc1 [Compound 6, 3-((2′-((2-(4′′-Fluorophenyl)hydrazineylidene)methyl)phenoxy)methyl)-2H-chromen-2-one]	–
–	3.61 ± 0.016 µM	–	14.49 ± 0.052 µM	O=c1oc2ccccc2cc1COc1ccccc1C=NNc1ccccc1Cl [Compound 7, 3-((2′-((2-(2′′-Chlorophenyl)hydrazineylidene)methyl)phenoxy)methyl)-2H-chromen-2-one]	–
–	2.94 ± 0.083 µM	–	5.96 ± 0.035 µM	O=c1oc2ccccc2cc1COc1ccccc1C=NNc1cccc(Cl)c1 [Compound 8, 3-((2′-((2-(3′′-Chlorophenyl)hydrazineylidene)methyl)phenoxy)methyl)-2H-chromen-2-one]	–
–	2.84 ± 0.032 µM	–	4.07 ± 0.078 µM	O=c1oc2ccccc2cc1COc1ccccc1C=NNc1ccc(Cl)cc1 [Compound 9, 3-((2′-((2-(4′′-Chlorophenyl)hydrazineylidene)methyl)phenoxy)methyl)-2H-chromen-2-one]	–
–	–	< 50%	–	O=c1oc2ccccc2cc1COc1ccccc1C=NNc1ccccc1Br [Compound 10, 3-((2′-((2-(2′′-Bromophenyl)hydrazineylidene)methyl)phenoxy)methyl)-2H-chromen-2-one]	inhibition at 100 µM [1, 5]: < 50%
–	–	< 50%	–	O=c1oc2ccccc2cc1COc1ccccc1C=NNc1ccc(Br)cc1 [Compound 11, 3-((2′-((2-(4′′-Bromophenyl)hydrazineylidene)methyl)phenoxy)methyl)-2H-chromen-2-one]	inhibition at 100 µM [1, 5]: < 50%
selective inhibition against ALR2 enzyme	3.66 ± 0.068 µM	37.9%	–	Cc1ccccc1NN=Cc1ccccc1OCc1cc2ccccc2oc1=O [Compound 12, 3-((2′-((2-(o-Tolyl)hydrazineylidene)methyl)phenoxy)methyl)-2H-chromen-2-one]	–
selective inhibition against ALR2 enzyme	4.64 ± 0.045 µM	34.2%	–	Cc1ccc(NN=Cc2ccccc2OCc2cc3ccccc3oc2=O)cc1 [Compound 13, 3-((2′-((2-(p-Tolyl)hydrazineylidene)methyl)phenoxy)methyl)-2H-chromen-2-one]	–
non-selective inhibitions	6.52 ± 0.077 µM	–	12.9 ± 0.013 µM	CCc1ccccc1NN=Cc1ccccc1OCc1cc2ccccc2oc1=O [Compound 14, 3-((2′-((2-(2′′-Ethylphenyl)hydrazineylidene)methyl)phenoxy)methyl)-2H-chromen-2-one]	–
non-selective inhibitions	10.19 ± 0.034 µM	–	4.21 ± 0.023 µM	COc1ccc(NN=Cc2ccccc2OCc2cc3ccccc3oc2=O)cc1 [Compound 15, 3-((2′-((2-(4′′-Methoxyphenyl)hydrazineylidene)methyl)phenoxy)methyl)-2H-chromen-2-one]	–
–	–	42.9%	–	N#Cc1ccc(NN=Cc2ccccc2OCc2cc3ccccc3oc2=O)cc1 [Compound 16, 4′′-(2-(2′-((2-Oxo-2H-chromen-3-yl)methoxy)benzylidene)hydrazineyl)benzonitrile]	inhibition at 100 µM [1, 5]: 39.2%
–	–	33.2%	–	O=c1oc2ccccc2cc1COc1ccccc1C=NNc1ccccc1[N+](=O)[O-] [Compound 17, 3-((2′-((2-(2′′-Nitrophenyl)hydrazineylidene)methyl)phenoxy)methyl)-2H-chromen-2-one]	inhibition at 100 µM [1, 5]: 45.6%
–	–	35.7%	–	O=c1oc2ccccc2cc1COc1ccccc1C=NNc1cccc([N+](=O)[O-])c1 [Compound 18, 3-((2′-((2-(3′′-Nitrophenyl)hydrazineylidene)methyl)phenoxy)methyl)-2H-chromen-2-one]	inhibition at 100 µM [1, 5]: 42.9%
selective inhibition against ALR2 enzyme	1.61 ± 0.049 µM	37%	–	Cc1cccc(NN=Cc2ccccc2OCc2cc3ccccc3oc2=O)c1C [Compound 19, 3-((2′-((2-(2′′,3′′-Dimethylphenyl)hydrazineylidene)methyl)phenoxy)methyl)-2H-chromen-2-one]	–
non-selective inhibitions	7.63 ± 0.061 µM	–	3.29 ± 0.064 µM	Cc1ccc(NN=Cc2ccccc2OCc2cc3ccccc3oc2=O)c(C)c1 [Compound 20, 3-((2′-((2-(2′′,4′′-Dimethylphenyl)hydrazineylidene)methyl)phenoxy)methyl)-2H-chromen-2-one]	–
non-selective inhibitions	4.07 ± 0.083 µM	–	11.23 ± 0.065 µM	O=c1oc2ccccc2cc1COc1ccccc1C=NNc1ccc(Cl)c(Cl)c1 [Compound 21, 3-((2′-((2-(3′′,4′′-Dichlorophenyl)hydrazineylidene)methyl)phenoxy)methyl)-2H-chromen-2-one]	–
–	–	–	–	O=c1oc2ccccc2cc1COc1ccccc1C=NNc1ccc([N+](=O)[O-])cc1[N+](=O)[O-] [Compound 22, 3-((2′-((2-(2′′,4′′-Dinitrophenyl)hydrazineylidene)methyl)phenoxy)methyl)-2H-chromen-2-one]	inhibition at 100 µM ([1]; read-out: % Inhibition ALR2, test compounds tested at 100 µM): < 50%; inhibition at 100 µM ([2]; read-out: % Inhibition ALR1, test compounds tested at 100 µM): < 50%
–	–	–	57.4 ± 0.89 µM	CCCC(CCC)C(=O)O [Valproic acid, reference compound]	–
–	–	–	–	C/C(=N\NC(=S)Nc1ccccc1F)c1cc2ccccc2oc1=O [XV]	selectivity relative to ALR1 enzyme [3]: high selectivity; IC50 ([3]; coumarin-tethered thiosemicarbazones, read-out: IC50 ALR2 / aldose reductase inhibition): 2.07 µM
